Assay results reported in patent US6239126A, “Arylpiperidine and aryl-1,2,5,6-tetra-hydropyridine urea derivatives” (American Home Products Corporation, priority 1999, dated 2001).
pIC50, pKi: −log10 of the molar value. Read-outs that look alike come from different tables or passages of the source.

Legend:
human 5HT1A receptor [1] = target: T1, human 5HT1A receptor (Homo sapiens, UniProt P08908); experiment: 5-HT1A Receptor Binding Assay (displacement of [^3 H] 8-OH-DPAT binding in CHO cells stably transfected with human 5HT1A receptor)
T1 construct: expressed in transfected cells; host or cells: CHO cells, stably transfected
T1 sequence (P08908 1-422): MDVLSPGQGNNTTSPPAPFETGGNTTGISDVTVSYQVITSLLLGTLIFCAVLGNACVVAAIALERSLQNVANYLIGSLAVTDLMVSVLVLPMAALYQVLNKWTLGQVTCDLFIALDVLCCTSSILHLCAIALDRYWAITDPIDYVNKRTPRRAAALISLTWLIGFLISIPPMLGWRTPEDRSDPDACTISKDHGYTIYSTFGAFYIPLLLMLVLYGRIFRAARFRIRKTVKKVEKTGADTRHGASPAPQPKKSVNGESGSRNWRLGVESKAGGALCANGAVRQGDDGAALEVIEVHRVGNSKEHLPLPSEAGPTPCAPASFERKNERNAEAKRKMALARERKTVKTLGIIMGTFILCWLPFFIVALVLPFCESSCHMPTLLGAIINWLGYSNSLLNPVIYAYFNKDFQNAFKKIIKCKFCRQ
Experimental: High affinity for the serotonin 5-HT1A receptor was established by testing a compound's ability to displace [^3 H] 8-OH-DPAT binding in CHO cells stably transfected with human 5HT1A receptor. Stably transfected CHO cells are grown in DMEM containing 10% heat inactivated FBS and non-essential amino acids. Cells are scraped off the plate, transferred to centrifuge tubes, and washed twice by centrifugation (2000 rpm for 10 min., 4° C.) in buffer (50 mM Tris pH 7.5). The resulting pellets are aliquoted and placed at -80° C. On the day of assay, the cells are thawed on ice and resuspended in buffer. The binding assay is performed in a 96 well microtiter plate in a total volume of 250 μL. Non-specific binding is determined in the presence of […] 5-HT, final ligand concentration is 1.5 nM. Following a 30 minute incubation at room temperature, the reaction is terminated by the addition of ice cold buffer and rapid filtration through a GF/B filter presoaked for 30 minutes in 0.5% PEI. Compounds are initially tested in a single point assay to determine percent inhibition at […], and Ki values are determined for the active compounds.

human 5HT1A receptor [2] = target: T1, human 5HT1A receptor; experiment: 5-HT1A Receptor Intrinsic Activity Assay, agonist activity (cAMP in forskolin-treated CHO cells stably transfected with the human 5-HT1A receptor); assay type: cell-based; details: read-out: cAMP Emax
Experimental: (§1) The intrinsic activity of compounds of the present invention was established by testing the claimed compounds ability to reverse the stimulation of cyclic adenosinemonophosphate (cAMP) in CHO cells stably transfected with the human 5-HT1A receptor.
(§2) Stably transfected CHO cells were grown in DMEM containing 10% heat inactivated FBS and non-essential amino acids. The cells are plated at a density of […] cells per well in a 24 well plate and incubated for 2 days in a CO2 incubator. On the second day, the media is replaced with 0.5 mL treatment buffer (DMEM +25 mM HEPES, 5 mM theophylline, 10 μM pargyline) and incubated for 10 minutes at 37° C. Wells are treated with forskolin (1 μM final concentration) followed immediately by the test compound (0.1 and 1 μM for initial screen) and incubated for an additional 10 minutes at 37° C. The reaction is terminated by removal of the media and addition of 0.5 mL ice cold assay buffer (supplied in the RIA kit). Plates are stored at -20° C. prior to assessment of cAMP formation by RIA. EC50 values are determined for the active test compounds. Compounds shown to have no agonist activities (Emax=0%) are further analyzed for their ability to reverse agonist induced activity. In separate experiments, 6 concentrations of antagonist are preincubated for 20 minutes prior to the addition of agonist and forskolin. Cells are harvested as described above. The cAMP kit is supplied by Amershan and the RIA is performed as per kit instructions, and calculations of IC50 performed by GraphPad Prism.

human 5HT1A receptor [3] = target: T1, human 5HT1A receptor; experiment: 5-HT1A Receptor Intrinsic Activity Assay, ability to reverse agonist induced activity (cAMP, CHO cells stably transfected with the human 5-HT1A receptor); assay type: cell-based; details: reversal of agonist induced activity; 6 concentrations of antagonist preincubated 20 minutes prior to agonist and forskolin
Experimental: as §1
as §2, with “The cAMP kit is supplied by Amershan and the RIA is performed as per kit instructions, and calculations of IC50 performed by GraphPad Prism.” left out

[4] = [^3 H] 8-OH-DPAT 1.5 nM, CHO cells, 30 minute incubation at room temperature, read-out: 5-HT1A binding Ki
[5] = agonist activity, forskolin 1 μM, CHO cells, 10 minutes at 37° C.

With `COc1ccc(F)cc1C1CCN(C[C@@H](Cc2ccccc2)N(C)C(=O)NC2CCCCC2)CC1` [Example 1, 1-{(1R)-1-Benzyl-2-[4-(5-fluoro-2-methoxyphenyl)-piperidin-1-yl]-ethly}-1-3-cyclohexyl-1-methyl-urea] the pKi (human 5HT1A receptor [1]; [4]) was 8.46, the Emax (human 5HT1A receptor [2]; [5]) was 0% and the pIC50 (human 5HT1A receptor [3]) was 7.33.
`COc1ccc(F)cc1C1=CCN(C[C@@H](Cc2ccccc2)N(C)C(=O)N2CCOCC2)CC1` [Example 2, Morpholine-4-carboxylic acid {(1R)-1-benzyl-2-[4-(5-fluoro-2-methoxy-phenyl)-1,2,5,6-tetrahydro-4H-pyridin-1-yl]-ethyl}-methyl-amide] showed a pKi (human 5HT1A receptor [1]) of 7.58 and an Emax (human 5HT1A receptor [2]; CHO) of 0%.
`COc1ccc(F)cc1C1=CCN(C[C@@H](Cc2ccccc2)N(C)C(=O)NC2CCCCC2)CC1` [Example 3, 1-{(1R)-1-Benzyl-2-[4-(5-fluoro-2-methoxy-phenyl)-1,2,5,6-tetrahydro-4H-pyridin-1-yl]-ethyl-}-3-cyclohexyl-1-methyl-urea] showed a pKi (human 5HT1A receptor [1]; [4]) of 8.46, an Emax (human 5HT1A receptor [2]; [5]) of 0% and a pIC50 (human 5HT1A receptor [3]) of 7.90.
